This note sets out measurements from patent US10076519B2 (CYTOKINETICS, INC., priority 2010, dated 2018).

Structures are written as SMILES.

One experiment has as its system rabbit skeletal myofibrils (fast skeletal myofibrils). As to the kind of experiment: Activation of fast skeletal myofibrils (PUMA assay, PK/LDH-coupled ATPase at pCa25). Particulars: AC1.4 determined according to the procedure of Example 39; reported as class symbols. Type of experiment: biochemical. An outline of the steps: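 ATPase activity of Triton-washed rabbit skeletal myofibrils, roughly 90% fast fibres, tracked by NADH loss at 340 nm through a PK/LDH-coupled ADP-regenerating system. Calcium set to 25% of maximal activity (pCa25), in PIPES 12 mM pH 6.8 with 2 mM MgCl2 and 1 mM DTT; AC1.4 reported.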
Take `NC(=O)c1cccc(-c2ccc(NCC3(c4ncccc4F)CCC3)nn2)c1F`: the “Mean AC1.4” value was “B (B=1-10 uM)”.
Take `Nc1n[nH]c2ccc(-c3ccc(NCC4(c5ccc(F)cc5)CCC4)nn3)cc12` [[6-(3-amino(1H-indazol-5-yl))pyridazin-3-yl]{[(4-fluorophenyl)cyclobutyl]meth-yl}amine]: the “Mean AC1.4” value is on record as “A (A=<1 uM)”.
The same measure, in the same setting: the same measure for `c1cnc(C2(CNc3ccc(-c4ccc5[nH]ncc5c4)nn3)CCC2)cn1` [(6-(1H-indazol-5-yl)pyridazin-3-yl)[(pyrazin-2-ylcyclobutyl)methyl]amine]: “C (C=10-20 uM)”.
Regarding `CC(C)(CNc1ccc(C(=O)N[C@H](Cc2ccccc2)C(N)=O)nn1)c1ccc(F)cc1` [N-((1R)-1-carbamoyl-2-phenylethyl)(6-{[2-(4-fluorophenyl)-2-methylpropyl]amino}pyridazin-3-yl)carboxamide], the “Mean AC1.4” value is “C (C=10-20 uM)”.
In the case of `Cc1cc(-c2cccc(C#N)c2)nnc1NCC(C)(C)c1ccc(F)cc1` [3-(6-{[2-(4-fluorophenyl)-2-methylpropyl]amino}-5-methylpyridazin-3-yl)benzenecarbonitrile], the “Mean AC1.4” value is “C (C=10-20 uM)”.

Still in this experiment, the particulars now being: median AC1.4 class, procedure of Example 39.
With `OC(c1cnc(-c2ccc(NCC3(c4ncccc4F)CCC3)nn2)s1)C(F)F` (stereo not drawn) [2,2-difluoro-1-{2-[6-({[(3-fluoro(2-pyridyl))cyclobutyl]methyl}ami-no)pyridazin-3-yl](1,3-thiazol-5-yl)}ethan-1-ol], the “Mean AC1.4” value was “B (B=1-10 uM)”.
Still for that read-out and setting: next, `NC(=O)CNCc1cnc(-c2ccc(NCC3(c4ncccc4F)CCC3)nn2)s1` [2-[({2-[6-({[(3-fluoro-2-pyridyl)cyclobutyl]methyl}ami-no)pyridazin-3-yl]-1,3-thiazol-5-yl}methyl)amino]acetamide]: “B (B=1-10 uM)”; `Cn1c(C(N)=O)cnc1-c1ccc(NCC2(c3ncccc3F)CCC2)nn1` [2-[6-({[(3-fluoro(2-pyridyl))cyclobutyl]methyl}ami-no)pyridazin-3-yl]-1-methylimidazole-5-carboxamide]: “B (B=1-10 uM)”; `COc1cc(-c2ccc(NC3(c4ccc(F)cc4)CCC3)nn2)ccn1` [[(4-fluorophenyl)cyclobutyl][6-(2-methoxy(4-pyridyl))pyridazin-3-yl]amine]: “B (B=1-10 uM)”.
Still for that read-out and setting: next, `Fc1cccnc1C1(Nc2ccc(-c3ccc4cn[nH]c4c3)nn2)CCC1` [(6-(1H-indazol-6-yl)pyridazin-3-yl)[(3-fluoro(2-pyridyl))cyclobutyl]amine]: “B (B=1-10 uM)”.

Still in this experiment, the particulars now being: median AC1.4 reported as class; procedure of Example 39.
`N#Cc1cn[nH]c1NC(=O)c1ccc(NCC2(c3ncccc3F)CCC2)nn1` [N-(4-cyanopyrazol-5-yl)[6-({[(3-fluoro(2-pyridyl))cyclobutyl]methyl}ami-no)pyridazin-3-yl]carboxamide]: the “Mean AC1.4” value was “B (B=1-10 uM)”.
As to `CNC(=O)Cc1csc(NC(=O)c2ccc(NCC3(c4ncccc4F)CCC3)nn2)n1` [2-(2-{[6-({[(3-fluoro(2-pyridyl))cyclobutyl]methyl}ami-no)pyridazin-3-yl]carbonylamino}(1,3-thiazol-4-yl))-N-methylacetamide], the “Mean AC1.4” value is “A (A=<1 uM)”.
Regarding `CC1(C)C(=O)NN=C1c1ccc(NCC2(c3ncccc3F)CCC2)nn1` [3-[6-({[(3-fluoro(2-pyridyl))cyclobutyl]methyl}ami-no)pyridazin-3-yl]-4,4-dimethyl-2-pyrazolin-5-one], the “Mean AC1.4” value is “D (D=>20 uM)”.
For the molecule `O=C(O)Cc1cnc(-c2ccc(NCC3(c4ncccc4F)CCC3)nn2)s1` [2-{2-[6-({[(3-fluoro-2-pyridyl)cyclobutyl]methyl}ami-no)pyridazin-3-yl]-1,3-thiazol-5-yl}acetic acid], the “Mean AC1.4” value is reported as “B (B=1-10 uM)”.
Same read-out and setting: next, `CN1CCN(Cc2cnc(-c3ccc(NCC4(c5ncccc5F)CCC4)nn3)s2)CC1` [{[(3-fluoro(2-pyridyl))cyclobutyl]methyl}(6-{5-[(4-methylpiperazinyl)methyl](1,3-thiazol-2-yl)}pyridazin-3-yl)amine]: “B (B=1-10 uM)”.
